Laboratory results published in ChEMBL document CHEMBL1201862, “PubChem BioAssay data set” (2004).
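Each compound was tested at five concentrations against cells in 96-well plates for 48 hours. Here, GI50 denotes the concentration required for 50% inhibition of growth.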 The source made the active and inactive calls. No stated cut-off is given here; in the data, active = GI50 up to about 1.1 µM and inactive = higher.

How the values were obtained:
Test in all cases: DTP human tumour cell line panel, 48 h
[1] = test system: CAKI-1
[2] = test system: NCI-H23
[3] = test system: NCI-H226
[4] = test system: A549
[5] = test system: OVCAR-8
[6] = test system: MDA-MB-231
[7] = test system: DU-145
[8] = test system: NCI/ADR-RES
[9] = test system: UO-31
[10] = test system: SR
[11] = test system: HL-60
[12] = test system: SF-268
[13] = test system: HCT-15
[14] = test system: MOLT-4
[15] = test system: SN12C
[16] = test system: CCRF-CEM
[17] = test system: SK-OV-3
[18] = test system: T47D
[19] = test system: MDA-MB-435
[20] = test system: Malme-3M

SMILES | GI50 [1] | GI50 [2] | GI50 [3] | GI50 [4] | GI50 [5] | GI50 [6] | GI50 [7] | GI50 [8] | GI50 [9] | GI50 [10] | GI50 [11] | GI50 [12] | GI50 [13] [µM] | GI50 [14] | GI50 [15] | GI50 [16] | GI50 [17] | GI50 [18] | GI50 [19] | GI50 [20]
O=C(CCc1cc(O)cc(O)c1)NCCc1cc(OCc2ccccc2)cc(OCc2ccccc2)c1 | 19.2 µM (inactive) | 10.4 µM (inactive) | 15.9 µM (inactive) | 5.28 µM (inactive) | 13.7 µM (inactive) | 10.3 µM (inactive) | 15.8 µM (inactive) | 17.8 µM (inactive) | 3.55 µM (inactive) | 4.83 µM (inactive) | 2.7 µM (inactive) | 15 µM (inactive) | 14.7 | 5.35 µM (inactive) | 14.9 µM (inactive) | 7.8 µM (inactive) | 16.8 µM (inactive) | 11.2 µM (inactive) | 11.1 µM (inactive) | 
CN(C(=O)C1=CCC2(CC1)OCCO2)c1ccccc1I | > 100 µM (inactive) | > 100 µM (inactive) | > 100 µM (inactive) | > 100 µM (inactive) | > 100 µM (inactive) | > 100 µM (inactive) | > 100 µM (inactive) | > 100 µM (inactive) | > 100 µM (inactive) | > 100 µM (inactive) | 96.6 µM (inactive) |  | > 100 | > 100 µM (inactive) | > 100 µM (inactive) | > 100 µM (inactive) | > 100 µM (inactive) | > 100 µM (inactive) | > 100 µM (inactive) | 
COc1ccc(/C=C(/C#N)C(N)=O)c(OC)c1 | > 100 µM (inactive) | > 100 µM (inactive) | > 100 µM (inactive) | > 100 µM (inactive) | > 100 µM (inactive) | > 100 µM (inactive) | > 100 µM (inactive) | > 100 µM (inactive) | 2.15 µM (inactive) | 37.3 µM (inactive) | 34 µM (inactive) | > 100 µM (inactive) | 60.8 | > 100 µM (inactive) | > 100 µM (inactive) | 26.8 µM (inactive) | > 100 µM (inactive) | > 100 µM (inactive) | 23.5 µM (inactive) | 
Cc1cccc(NC(=S)Nc2ccc(Cl)cc2)n1 | > 100 µM (inactive) | > 100 µM (inactive) | > 100 µM (inactive) |  | > 100 µM (inactive) | > 100 µM (inactive) | > 100 µM (inactive) | > 100 µM (inactive) | > 100 µM (inactive) | > 100 µM (inactive) | > 100 µM (inactive) | > 100 µM (inactive) | > 100 | > 100 µM (inactive) |  | > 100 µM (inactive) | > 100 µM (inactive) | > 100 µM (inactive) | > 100 µM (inactive) | 
CN1C(=O)c2ccc3ccccc3c2C1=O | > 100 µM (inactive) | > 100 µM (inactive) | > 100 µM (inactive) | > 100 µM (inactive) | > 100 µM (inactive) | > 100 µM (inactive) | > 100 µM (inactive) | > 100 µM (inactive) | > 100 µM (inactive) | > 100 µM (inactive) | 28.1 µM (inactive) | > 100 µM (inactive) | > 100 | > 100 µM (inactive) | > 100 µM (inactive) | > 100 µM (inactive) | > 100 µM (inactive) | 63.5 µM (inactive) | > 100 µM (inactive) | 
Cc1c(C)c(S(=O)(=O)N(CCCN)OCCCN)c(C)c2c1OC(C)(C)CC2 | 16.5 µM (inactive) | 14.5 µM (inactive) | 13.4 µM (inactive) | 15.6 µM (inactive) | 16.3 µM (inactive) | 4.63 µM (inactive) | 16 µM (inactive) | 25.7 µM (inactive) | 17.5 µM (inactive) | 17.5 µM (inactive) |  | 13.3 µM (inactive) | 15.8 | 4.61 µM (inactive) | 15.1 µM (inactive) | 10.2 µM (inactive) | 15.4 µM (inactive) | 16.9 µM (inactive) | 15.8 µM (inactive) | 13.6 µM (inactive)
